Results reported in the supplement of paper PMC11061612.

Columns and labels:
EW-11 (Ewing's Sarcoma) [1] = assay: Bliss excess, mean over the matrix (fraction); higher = more synergy
Procedure, shortened: (§1)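 Bliss excess equals the observed combination effect minus the expected value EA + EB − EA·EB, where EA and EB are the effects of each agent alone. Combination Emax is the second-highest inhibition within the matrix. Inhibition was scaled from CellTiter-Glo 2.0 luminescence, with 0 set by vehicle wells and 1 by blank wells, after 72 hours of two-drug dosing of cells plated in 1536-well plates.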

[2] = system: ESS-1 (Other Solid Carcinomas); assay: as above
Procedure, shortened: as §1

[3] = system: TGBC1TKB (Biliary Tract Carcinoma); assay: as above
Procedure, shortened: as §1

[4] = system: HH (T-Cell Non-Hodgkin's Lymphoma); assay: as above
Procedure, shortened: as §1

[5] = system: WSU-NHL (B-Cell Non-Hodgkin's Lymphoma); assay: as above
Procedure, shortened: as §1

[6] = system: OVCAR-5 (Ovarian Carcinoma); assay: as above
Procedure, shortened: as §1

[7] = system: HuCCT1 (Biliary Tract Carcinoma); assay: as above
Procedure, shortened: as §1

[8] = system: LNZTA3WT4 (Low Grade Glioma); assay: as above
Procedure, shortened: as §1

[9] = system: NCI-H524 (Small Cell Lung Carcinoma); assay: as above
Procedure, shortened: as §1

A673 (Ewing's Sarcoma) [10] = assay: as above
Procedure, shortened: as §1

[11] = system: YAPC (Pancreatic Carcinoma); assay: as above
Procedure, shortened: as §1

MPP-89 (Mesothelioma) [12] = assay: as above
Procedure, shortened: as §1

[13] = system: SNU-16 (Gastric Carcinoma); assay: as above
Procedure, shortened: as §1

KS-1 (Glioblastoma) [14] = assay: as above
Procedure, shortened: as §1

[15] = system: LS-123 (Colorectal Carcinoma); assay: as above
Procedure, shortened: as §1

GAMG (Glioblastoma) [16] = assay: as above
Procedure, shortened: as §1

[17] = system: SW1710 (Bladder Carcinoma); assay: as above
Procedure, shortened: as §1

LOXIMVI (Melanoma) [18] = assay: as above
Procedure, shortened: as §1

CAL-72 (Osteosarcoma) [19] = assay: as above
Procedure, shortened: as §1

[20] = system: BE-13 (T-Lymphoblastic Leukemia); assay: as above
Procedure, shortened: as §1

[21] = system: SAS (Oral Cavity Carcinoma); assay: as above
Procedure, shortened: as §1

[22] = system: SNU-449 (Hepatocellular Carcinoma); assay: as above
Procedure, shortened: as §1

EW-11 (Ewing's Sarcoma) [23] = assay: combination Emax (second highest fraction inhibited in the dose matrix, 72 h); higher = more inhibition; extreme values may be limits of the assay
Procedure, shortened: as §1

[24] = system: ESS-1 (Other Solid Carcinomas); assay: as above
Procedure, shortened: as §1

[25] = system: TGBC1TKB (Biliary Tract Carcinoma); assay: as above
Procedure, shortened: as §1

[26] = system: HH (T-Cell Non-Hodgkin's Lymphoma); assay: as above
Procedure, shortened: as §1

[27] = system: WSU-NHL (B-Cell Non-Hodgkin's Lymphoma); assay: as above
Procedure, shortened: as §1

[28] = system: OVCAR-5 (Ovarian Carcinoma); assay: as above
Procedure, shortened: as §1

[29] = system: HuCCT1 (Biliary Tract Carcinoma); assay: as above
Procedure, shortened: as §1

[30] = system: LNZTA3WT4 (Low Grade Glioma); assay: as above
Procedure, shortened: as §1

[31] = system: NCI-H524 (Small Cell Lung Carcinoma); assay: as above
Procedure, shortened: as §1

A673 (Ewing's Sarcoma) [32] = assay: as above
Procedure, shortened: as §1

[33] = system: YAPC (Pancreatic Carcinoma); assay: as above
Procedure, shortened: as §1

MPP-89 (Mesothelioma) [34] = assay: as above
Procedure, shortened: as §1

[35] = system: SNU-16 (Gastric Carcinoma); assay: as above
Procedure, shortened: as §1

KS-1 (Glioblastoma) [36] = assay: as above
Procedure, shortened: as §1

[37] = system: LS-123 (Colorectal Carcinoma); assay: as above
Procedure, shortened: as §1

GAMG (Glioblastoma) [38] = assay: as above
Procedure, shortened: as §1

[39] = system: SW1710 (Bladder Carcinoma); assay: as above
Procedure, shortened: as §1

LOXIMVI (Melanoma) [40] = assay: as above
Procedure, shortened: as §1

CAL-72 (Osteosarcoma) [41] = assay: as above
Procedure, shortened: as §1

[42] = system: BE-13 (T-Lymphoblastic Leukemia); assay: as above
Procedure, shortened: as §1

[43] = system: SAS (Oral Cavity Carcinoma); assay: as above
Procedure, shortened: as §1

[44] = system: SNU-449 (Hepatocellular Carcinoma); assay: as above
Procedure, shortened: as §1

[45] = system: KYAE-1 (Esophageal Adenocarcinoma); assay: as above
Procedure, shortened: as §1

## C=CCn1c(=O)c2cnc(Nc3ccc(N4CCN(C)CC4)cc3)nc2n1-c1cccc(C(C)(C)O)n1 [AZD1775] + Nc1ccn([C@@H]2O[C@H](CO)[C@@H](O)C2(F)F)c(=O)n1 [Gemcitabine] (first compound max 1 µM, partner max 0.3 µM)
EW-11 (Ewing's Sarcoma) [1]
  Bliss excess: -0.0613
[2]
  Bliss excess: 0.0774
[3]
  Bliss excess: -0.02
[4]
  Bliss excess: -0.0316
[5]
  Bliss excess: -0.0035
[6]
  Bliss excess: 0.0364
[7]
  Bliss excess: 0.0536
[8]
  Bliss excess: 0.0746
[9]
  Bliss excess: 0.0443
A673 (Ewing's Sarcoma) [10]
  Bliss excess: 0.039
[11]
  Bliss excess: 0.109
MPP-89 (Mesothelioma) [12]
  Bliss excess: 0.0505
[13]
  Bliss excess: -0.013
KS-1 (Glioblastoma) [14]
  Bliss excess: 0.0304
[15]
  Bliss excess: -0.0068
GAMG (Glioblastoma) [16]
  Bliss excess: 0.0684
[17]
  Bliss excess: 0.0838
LOXIMVI (Melanoma) [18]
  Bliss excess: -0.0118
CAL-72 (Osteosarcoma) [19]
  Bliss excess: -0.0796
[20]
  Bliss excess: 0.0778
[21]
  Bliss excess: 0.0585
[22]
  Bliss excess: -0.0186
EW-11 (Ewing's Sarcoma) [23]
  combination Emax: 0.758
[24]
  combination Emax: 1
[25]
  combination Emax: 0.454
[26]
  combination Emax: 0.574
[27]
  combination Emax: 0.987
[28]
  combination Emax: 0.692
[29]
  combination Emax: 0.805
[30]
  combination Emax: 0.886
[31]
  combination Emax: 0.951
A673 (Ewing's Sarcoma) [32]
  combination Emax: 0.937
[33]
  combination Emax: 0.643
MPP-89 (Mesothelioma) [34]
  combination Emax: 0.599
[35]
  combination Emax: 0.998
KS-1 (Glioblastoma) [36]
  combination Emax: 0.5
[37]
  combination Emax: 0.68
GAMG (Glioblastoma) [38]
  combination Emax: 0.805
[39]
  combination Emax: 0.755
LOXIMVI (Melanoma) [40]
  combination Emax: 0.797
CAL-72 (Osteosarcoma) [41]
  combination Emax: 0.716
[42]
  combination Emax: 1
[43]
  combination Emax: 0.996
[44]
  combination Emax: 0.426
[45]
  combination Emax: 0.316
